Results reported in publication PMC10514301 (Signal Transduction and Targeted Therapy, 2023).

Key:
[1] = tested on: SARS-CoV-2 Omicron BA.5 variant; assay: Antiviral activity against SARS-CoV-2 Omicron BA.5 in HEK293T-hACE2-TMPRSS2 cells (qRT-PCR); format: cell-based; settings: Severe acute respiratory syndrome coronavirus 2, 24 h; read-out: EC50 mean ± sd, HEK293T-ACE2-T2, Omicron BA.5
[2] = tested on: SARS-CoV-2 Omicron BA.1 variant; assay: Antiviral activity against SARS-CoV-2 Omicron BA.1 in HEK293T-hACE2-TMPRSS2 cells (qRT-PCR); format: cell-based; settings: Severe acute respiratory syndrome coronavirus 2, 24 h; read-out: EC50 mean ± sd, HEK293T-ACE2-T2, Omicron BA.1
[3] = tested on: SARS-CoV-2 Omicron BA.5 variant; assay: Antiviral activity against SARS-CoV-2 Omicron BA.5 in Vero E6 cells (qRT-PCR); format: cell-based
[4] = tested on: SARS-CoV-2 Omicron BA.1 variant; assay: Antiviral activity against SARS-CoV-2 Omicron BA.1 in Vero E6 cells (qRT-PCR); format: cell-based
[5] = tested on: SARS-CoV-2 Delta variant; assay: Antiviral activity against SARS-CoV-2 Delta in HEK293T-hACE2-TMPRSS2 cells (qRT-PCR); format: cell-based; settings: Severe acute respiratory syndrome coronavirus 2, 24 h; read-out: EC50 mean ± sd, HEK293T-ACE2-T2, Delta
[6] = tested on: SARS-CoV-2 Delta variant; assay: Antiviral activity against SARS-CoV-2 Delta in Vero E6 cells (viral RNA copies, qRT-PCR); format: cell-based
[7] = tested on: SARS-CoV-2 Delta variant; format: in vivo, K18-hACE2 mice
[8] = tested on: SARS-CoV-2 variants (Delta, Omicron BA.1, and Omicron BA.5), HCoV-OC43, and HCoV-229E; assay: organism not typed; format: cell-based; settings: read-out: half-maximal effective concentrations (EC50), range over HCoVs and cell lines
[9] = Severe acute respiratory syndrome coronavirus 2, Vero C1008, 24 h, read-out: EC50 mean ± sd, Vero E6, Omicron BA.5
[10] = Severe acute respiratory syndrome coronavirus 2, Vero C1008, 24 h, read-out: EC50 mean ± sd, Vero E6, Omicron BA.1
[11] = Severe acute respiratory syndrome coronavirus 2, Vero C1008, 24 h, read-out: EC50 mean ± sd, Vero E6, Delta

SMILES	EC50 [1] [nM]	EC50 [2] [nM]	EC50 [3, 9] [nM]	EC50 [4, 10] [nM]	EC50 [5] [nM]	EC50 [6, 11] [nM]	expression of IL-6 and CCL2 in the lungs ([7]; initial days (day 2))	reduction of lung viral loads compared to the vehicle group ([7]; oral BID, […], VV116 50 and 100 mpk, nirmatrelvir 100 mpk with ritonavir 50 mpk, Combo = VV116 50 + nirmatrelvir 100 + ritonavir 50 mpk)	EC50 ([3]; Severe acute respiratory syndrome coronavirus 2, Vero C1008, Vero E6 cells, read-out: EC50 against Omicron BA.5) [nM]	EC50 ([4]; Severe acute respiratory syndrome coronavirus 2, Vero C1008, Vero E6 cells, read-out: EC50 against the SARS-CoV-2 Omicron BA.1 variant in Vero E6 cells) [nM]	EC50 ([6]; Severe acute respiratory syndrome coronavirus 2, Vero C1008, Vero E6 cells, read-out: EC50 against the SARS-CoV-2 Delta variant in Vero E6 cells) [nM]	EC50 [8] [nM]
N#C[C@@]1(c2ccc3c(N)ncnn23)O[C@H](CO)[C@@H](O)[C@H]1O [GS-441524]	750 ± 64	380 ± 40	100 ± 11	280 ± 11	250 ± 140	610 ± 79						
CC(C)(C)[C@H](NC(=O)C(F)(F)F)C(=O)N1C[C@H]2[C@@H]([C@H]1C(=O)N[C@H](C#N)C[C@@H]1CCNC1=O)C2(C)C [Nirmatrelvir, nirmatrelvir]							reduction	1–2 log				
CCC(CC)COC(=O)[C@H](C)N[P@](=O)(OC[C@H]1O[C@@](C#N)(c2ccc3c(N)ncnn23)[C@H](O)[C@@H]1O)Oc1ccccc1 [RDV, remdesivir]									130	540	2200	
[2H]c1cc([C@]2(C#N)O[C@H](CO)[C@@H](O)[C@H]2O)n2ncnc(N)c12 [X1]	450 ± 100	720 ± 24	460 ± 4	300 ± 27	150 ± 37	830 ± 71						60 to 1100
